Assay results as given in patent US10314771B2, “Methods and compositions for preventing and treating tooth erosion” (University of Tennessee Research Foundation, priority 2013, dated 2019).

Experimental: The capacity of sodium bicarbonate to neutralize acid saliva was assessed. A pool of saliva was collected from 5 individuals, and the normal pH of the saliva was measured before brushing or eating. […] In order to simulate an acidic challenge, the pH of the saliva was adjusted to 2.5 with 0.01M HCl.
The saliva was titrated with a 3M sodium bicarbonate solution and measured the volume of solution necessary to neutralize the saliva to a pH of 6.8.

- volume needed to neutralize the acidic saliva to a pH of 7.0 (3M solution): 2.0 mLs
SMILES: O=C([O-])O.[Na+] [Sodium Bicarbonate, sodium bicarbonate]
- rinsing time sufficient to help neutralize the saliva (rinsing with a sodium bicarbonate solution): 30 s
